{"source": "paper PMC7566600", "about": "“Engineering Af1521 improves ADP-ribose binding and identification of ADP-ribosylated proteins” (Nature Communications, 2020)", "target": "T1, WT Af1521 macro domain (Archaeoglobus fulgidus, UniProt O28751)", "T1 construct": "gene AF_1521; macro domain, His-tagged", "T1 sequence (O28751 1-192)": "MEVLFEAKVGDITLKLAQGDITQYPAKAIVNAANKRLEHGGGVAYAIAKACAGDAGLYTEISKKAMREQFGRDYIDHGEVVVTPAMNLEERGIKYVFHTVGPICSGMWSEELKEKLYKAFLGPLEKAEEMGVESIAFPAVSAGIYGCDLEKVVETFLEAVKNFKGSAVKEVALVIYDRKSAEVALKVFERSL", "assay": "SPR ([…] kinetic fit; steady-state fit gave […]), immobilized protein", "assay_type": "binding"}
{"compound": "Nc1ncnc2c1ncn2[C@@H]1O[C@H](COP(=O)(O)OP(=O)(O)OC[C@H]2O[C@H](O)[C@H](O)[C@@H]2O)[C@@H](O)[C@H]1O", "note": "[ADP-ribose]", "values": [{"measurement": "Kd", "value": "2879 ± 9", "unit": "nM"}]}
